Test results as given in US5087624A, “Chromic picolinate treatment” (Nutrition 21, priority 1990, dated 1992).
“And” between values parts separate entries of the source, which are not always exact repeats. Equal entries are not always repeated. “Also recorded” adds a separate entry of the source.

Columns and labels:
[1] = system: Glucose Tolerance Factor activity; experiment: Glucose Tolerance Factor activity
[2] = system: insulin receptors; experiment: Binding to insulin receptors
[3] = Cross-over study in subjects with adult onset diabetes mellitus (EXAMPLE 4); format: in vivo, human
Excerpt: Normal values are 5.5% to 7.5%.

[4] = Absorption of orally given Cr-51 labelled chromium: radioactivity in liver and kidney; format: in vivo, male Sprague-Dawley rats; conditions: relative to chromic chloride, from Table 1
Excerpt: The solution was cooled to room temperature before use.

[5] = system: rats; experiment: Oral toxicity experiment; format: in vivo, rat
Description: In a toxicity experiment, rats weighing a mean of 223.4 g were given an oral suspension of 100 mg, 300 mg and 500 mg chromic tripicolinate in water. […] The tests were stopped at 500 mg because it was impossible to obtain a workable suspension beyond this level.

[6] = Double-blind cross-over study of serum lipids (EXAMPLE 3); format: in vivo, human
Description: The placebo contained only 5 mg calcium phosphate. […] Compliance by subjects was monitored by capsule count. The foregoing study protocol is illustrated in FIG. 1.
Student's t test and p values were determined with the program WORMSTAT^TM (available from Small Business Computers, New England, U.S.A.).

[7] = system: insulin; experiment: Binding to insulin
[8] = Anabolic effect in male weight-training students (EXAMPLE 5); format: in vivo, human
Description: This study was performed to evaluate the anabolic effect of chromic tripicolinate in male subjects.
At the start of the study, 10 male university students enrolled in weight training classes, were given, at random, a 40-day supply of capsules that contained either placebo (5 mg of calcium phosphate) or chromic tripicolinate (1.6 mg chromic tripicolinate admixed with 5 mg of […], which provided 200 ug of chromium). The identity of the capsules was known only to an individual who was not in any way involved in the study. During the 40-day period, each of the volunteers followed a prescribed weight lifting protocol for a total of 3 hours per week. Measurements taken at the beginning and again at the end of the study included various skin-fold thicknesses, bicep and calf circumferences, and body weight. Percent body fat was derived from the sum of the triceps, subscapular and chest skinfolds. Lean body mass was derived from anthropometrically-determined percent body fat: weight -(weight ×percent body fat).

[9] = supplemental trivalent chromium; cited from earlier work
[10] = start of 42-day treatment (baseline), mean ± SD of 28 subjects

chromic tripicolinate
Glucose Tolerance Factor activity [1]: has Glucose Tolerance Factor activity | binding to insulin receptors [2]: binds to insulin and insulin receptors | HDL trend ([3]; P was not <0.05): trends were favorable | cholesterol trend ([3]; P was not <0.05): trends were favorable | LDL decrease ([3]; diabetic subjects): 8% | blood pressure change ([3]; diabetic subjects): no significant changes | fasting glucose change ([3]; diabetic subjects): significant decreases | glycosylated hemoglobin change ([3]; diabetic subjects): significant decreases | heart rate change ([3]; diabetic subjects): no significant changes | temperature change ([3]; diabetic subjects): no significant changes | weight change ([3]; diabetic subjects): no significant changes | Hemoglobin A1 C decrease ([3]; treatment versus placebo groups): 12% | rate of absorption greater than that of chromic chloride [4]: about 4 times | dose to be ingested before any effects would be observed ([5]; 70 Kg human, extrapolated from rat): > 156 grams | deaths ([5]; oral suspension 100 mg, 300 mg and 500 mg in water): No deaths occurred | oral lethal dose ([5]; rats, oral): > 2.2 g/kg | Apolipoprotein B reduction ([6]; 28 subjects, 42 days): 16% | LDL-cholesterol decrease ([6]; 28 subjects, 42 days): 10% | Total cholesterol decrease ([6]; 28 subjects, 42 days): 7% | LDL-cholesterol change ([6]; 28 subjects, 42 days, p<0.001): significant (p<0.001) reductions | Total cholesterol change ([6]; 28 subjects, 42 days, p<0.001): significant (p<0.001) reductions | Apolipoprotein B change ([6]; 28 subjects, p=0.001): decreased significantly | Apolipoprotein A1 change ([6]; 28 subjects, p=0.003): significantly elevated | fine rash about forearms ([6]; 200 micrograms Cr daily): one subject on chromium supplementation | mouth ulcers ([6]; 200 micrograms Cr daily): the other on chromium supplement | blood pressure change ([6]; 42 days): No significant changes | heart rate change ([6]; 42 days): No significant changes | serum triglycerides change ([6]; 42 days): No significant changes | temperature change ([6]; 42 days): No significant changes | weight change ([6]; 42 days): No significant changes | Apo B, Chng. ([6]; 42 days, 28 subjects, p = .001): -25 mg/dL | Apo A, Chng. ([6]; 42 days, 28 subjects, p = .003): +16 mg/dl | Apo B, Final ([6]; end of 42-day treatment, mean ± SD of 28 subjects): 130 mg/dL | LDL-cholesterol change ([6]; final 42 days, placebo-first group, p=0.003): decreased significantly | Total cholesterol change ([6]; final 42 days, placebo-first group, p=0.009): decreased significantly | Apolipoprotein B change ([6]; first 6-week period, chromic tripicolinate-first group, p=0.003): significantly decreased | Total cholesterol change ([6]; first 6-week period, chromic tripicolinate-first group, p=0.007): significantly decreased | LDL-cholesterol change ([6]; first 6-week period, chromic tripicolinate-first group, p=0.015): significantly decreased | Apolipoprotein A1 change ([6]; first 6-week period, chromic tripicolinate-first group, p=0.047): significantly elevated | other abnormalities ([6]; in vivo): No other abnormalities were noted | subjects with decreased LDL-cholesterol ([6]; of final 28 subjects): 20 | subjects with lower total cholesterol ([6]; of final 28 subjects): 22 | subjects with total cholesterol elevated less than 0.1 mmole/1 (5 mg/dl) ([6]; of final 28 subjects): 4 | subjects with unchanged LDL-cholesterol ([6]; of final 28 subjects): 3 | subjects with unchanged total cholesterol ([6]; of final 28 subjects): 2 | HDL-cholesterol change ([6]; p>0.05): increased slightly but not significantly | Apolipoprotein B change ([6]; placebo-first group, after supplementation, p=0.072): decreased, but not significantly | Apolipoprotein A1 change ([6]; placebo-first group, supplementation period, p=0.007): increased significantly | Apo A, Init [6, 10]: 147 ± 28 mg/dL | Apo B, Init [6, 10]: 155 ± 50 mg/dL and 155 mg/dL | Apolipoprotein A1 change, summary ([6]; summary): elevated; also recorded: significant elevation | Apolipoprotein B change, summary ([6]; summary): decreased; also recorded: significant reduction | LDL-cholesterol change, summary ([6]; summary of Examples 3 and 4): decreased | Total cholesterol change, summary ([6]; summary of Examples 3 and 4): decreased | binding to insulin [7]: binds to insulin | bicep circumference increase ([8]; 40 days, P=0.0056): 1.4±0.45 cm | calculated lean body mass increase ([8]; 40 days, P=0.017): 1.6 kg | increase in lean body mass compared with placebo group ([8]; Student's t test, P=0.0198): significantly greater

[Cl][Cr]([Cl])[Cl] [chromic chloride]
risk factors associated with maturity-onset diabetes and cardiovascular diseases [9]: associated with improvements of risk factors
